Experimental data taken from patent US11918582B2 (RAPT Therapeutics, Inc., priority 2021, dated 2024).
Structures can show the parent of a compound that is named as a salt.

Biological target: T1, human HPK1 (MAP4K1) (Homo sapiens, UniProt Q92918)
T1 construct: Recombinant human HPK1 kinase domain was obtained from ThermoFisher (Cat. #PV6357) and SignalChem (Cat. #M23-11G); purchased ThermoFisher; SignalChem PV6357; M23-11G
T1 sequence (Q92918 17-274 limits assumed): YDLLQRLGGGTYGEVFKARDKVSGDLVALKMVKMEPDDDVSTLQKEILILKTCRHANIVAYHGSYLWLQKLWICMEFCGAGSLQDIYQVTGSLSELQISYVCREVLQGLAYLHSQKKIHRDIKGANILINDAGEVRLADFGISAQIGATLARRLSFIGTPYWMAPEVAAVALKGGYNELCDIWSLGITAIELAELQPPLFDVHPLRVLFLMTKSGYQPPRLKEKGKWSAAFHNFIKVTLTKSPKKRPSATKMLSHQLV
Assay: Biochemical assay for activity against HPK1 (ADP-Glo, MBP substrate)
Details: recombinant human HPK1 kinase domain, 1 nM enzyme, ADP-Glo luminescence
In short: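 IC50s come from ADP-Glo luminescence after a 2 h room-temperature reaction phosphorylating MBP in the presence of ATP. Compound was first preincubated 15 min with 1 nM HPK1 kinase domain, human recombinant. Buffer: 50 mM HEPES pH 7.5, 150 mM NaCl, 3 mM TCEP, 10 mM MgCl2, 0.005% Tween-20, 0.01% BSA.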

Row | Compound | IC50 [nM]
1 | COc1cc2c(cc1Nc1ncc3cnn(C[C@@H]4[C@H]5C[C@H]5CN4C(C)=O)c3n1)CN(C)CC2 [Example 220, 1-[(1S,2S,5R)-2-[[6-[(6-methoxy-2-methyl-3,4-dihydro-1H-isoquinolin-7-yl)amino]pyrazolo[3,4-d]pyrimidin-1-yl]methyl]-3-azabicyclo[3.1.0]hexan-3-yl]ethanone] | < 100
2 | COC(=O)N1CCC[C@H]1Cn1ncc2cnc(Nc3cc4c(cc3OC)CCN(C)C4)nc21 [Example 113, methyl (S)-2-((6-((6-methoxy-2-methyl-1,2,3,4-tetrahydroisoquinolin-7-yl)amino)-1H-pyrazolo[3,4-d]pyrimidin-1-yl)methyl)pyrrolidine-1-carboxylate trifluoroacetate] | < 100
3 | COC(C)(C)CCn1ncc2cnc(Nc3ccc4c(c3)CN(C)CC4)nc21 [Example 11, N-(1-(3-methoxy-3-methylbutyl)-1H-pyrazolo[3,4-d]pyrimidin-6-yl)-2-methyl-1,2,3,4-tetrahydroisoquinolin-7-amine] | < 100
4 | COc1cc2c(cc1Nc1ncc3cnn(C[C@@H]4COCCN4C(C)=O)c3n1)CN(C)CC2 [Example 129, (R)-1-(3-((6-((6-methoxy-2-methyl-1,2,3,4-tetrahydroisoquinolin-7-yl)amino)-1H-pyrazolo[3,4-d]pyrimidin-1-yl)methyl)morpholino)ethan-1-one trifluoroacetate] | < 100
5 | COc1cc2c(cc1Nc1ncc3cnn([C@@H]4CC[C@H]5CN(C(C)=O)[C@H]54)c3n1)CN(C)CC2 [Example 209, 1-((1S,4R,5R)-4-(6-((6-methoxy-2-methyl-1,2,3,4-tetrahydroisoquinolin-7-yl)amino)-1H-pyrazolo[3,4-d]pyrimidin-1-yl)-6-azabicyclo[3.2.0]heptan-6-yl)ethan-1-one] | < 100
6 | COc1cc2c(cc1Nc1ncc3cnn(C[C@H]4CCC[C@@H]4C(=O)O)c3n1)CN(C)CC2 [Example 158, (1S,2S)-2-[[6-[(6-methoxy-2-methyl-3,4-dihydro-1H-isoquinolin-7-yl)amino]pyrazolo[3,4-d]pyrimidin-1-yl]methyl]cyclopentanecarboxylic Acid] | < 100
7 | COc1nc2c(cc1Nc1ncc3cnn([C@H]4CC[C@H](O)CC4)c3n1)CN(C)CC2 [Example 187, (1r,4r)-4-(6-((2-methoxy-6-methyl-5,6,7,8-tetrahydro-1,6-naphthyridin-3-yl)amino)-1H-pyrazolo[3,4-d]pyrimidin-1-yl)cyclohexan-1-ol] | < 100
8 | COc1cc2c(cc1Nc1ncc3cnn(C[C@@H]4CC[C@@H](C)N4C(C)=O)c3n1)CN(C)CC2 [Example 174] | < 100
9 | COc1cc2c(cc1Nc1ncc3cnn(C4CCC(CO)CC4)c3n1)CN(C)CC2 (stereo in doubt) [Example 64, cis-[4-[6-[(6-methoxy-2-methyl-3,4-dihydro-1H-isoquinolin-7-yl)amino]pyrazolo[3,4-d]pyrimidin-1-yl]cyclohexyl]methanol] | < 100
10 | COc1cc2c(cc1Nc1ncc3cnn([C@H]4CC[C@H](C(N)=O)C4)c3n1)CN(C)CC2 (racemic) [Example 42, rac-(1S,3S)-3-(6-((6-methoxy-2-methyl-1,2,3,4-tetrahydroisoquinolin-7-yl)amino)-1H-pyrazolo[3,4-d]pyrimidin-1-yl)cyclopentane-1-carboxamide] | < 100
11 | COc1cc2c(cc1Nc1ncc3cnn(C[C@@H]4CCC[C@H]4C(=O)O)c3n1)CN(C)CC2 (racemic) [Example 182, racemic trans-2-((6-((6-methoxy-2-methyl-1,2,3,4-tetrahydroisoquinolin-7-yl)amino)-1H-pyrazolo[3,4-d]pyrimidin-1-yl)methyl)cyclopentane-1-carboxylic Acid] | < 100
12 | COc1cc2c(cc1Nc1ncc3cnn([C@H]4CCC[C@H](C(=O)O)C4)c3n1)CN(C)CC2 (racemic) [Example 28, rac-(1S,3S)-3-(6-((6-methoxy-2-methyl-1,2,3,4-tetrahydroisoquinolin-7-yl)amino)-1H-pyrazolo[3,4-d]pyrimidin-1-yl)cyclohexane-1-carboxylic acid] | < 100
13 | CCC(=O)N1CCC[C@H]1Cn1ncc2cnc(Nc3cc4c(cc3OC)CCN(C)C4)nc21 [Example 112, (S)-1-(2-((6-((6-methoxy-2-methyl-1,2,3,4-tetrahydroisoquinolin-7-yl)amino)-1H-pyrazolo[3,4-d]pyrimidin-1-yl)methyl)pyrrolidin-1-yl)propan-1-one trifluoroacetate] | < 100
14 | COc1cc2c(cc1Nc1ncc3cnn(C(C)C)c3n1)CN(C)CC2 [Example 104, N-(1-isopropylpyrazolo[3,4-d]pyrimidin-6-yl)-6-methoxy-2-methyl-3,4-dihydro-1H-isoquinolin-7-amine] | < 100
15 | CCN1CCc2cc(OC)c(Nc3ncc4cnn([C@H]5CC[C@H](O)CC5)c4n3)cc2C1 [Example 155, trans-4-(6-((2-ethyl-6-methoxy-1,2,3,4-tetrahydroisoquinolin-7-yl)amino)-1H-pyrazolo[3,4-d]pyrimidin-1-yl)cyclohexan-1-ol] | < 100
16 | COc1cc2c(cc1Nc1ncc3cnn(CC4CC4(F)F)c3n1)CN(C)CC2 (stereo not shown) [Example 206, N-(1-((2,2-difluorocyclopropyl)methyl)-1H-pyrazolo[3,4-d]pyrimidin-6-yl)-6-methoxy-2-methyl-1,2,3,4-tetrahydroisoquinolin-7-amine] | < 100
17 | COc1nc2c(cc1Nc1ncc3cnn([C@@H]4CCC[C@@H](C(N)=O)C4)c3n1)CN(C)CC2 [Example 181, (1R,3R)-3-(6-((2-methoxy-6-methyl-5,6,7,8-tetrahydro-1,6-naphthyridin-3-yl)amino)-1H-pyrazolo[3,4-d]pyrimidin-1-yl)cyclohexane-1-carboxamide Mesylate] | < 100
18 | COc1cc2c(cc1Nc1ncc3cnn([C@H]4CCC[C@H](C(N)=O)C4)c3n1)CN(C)CC2 [Example 31, (1S,3S)-3-(6-((6-methoxy-2-methyl-1,2,3,4-tetrahydroisoquinolin-7-yl)amino)-1H-pyrazolo[3,4-d]pyrimidin-1-yl)cyclohexane-1-carboxamide] | < 100
19 | COc1cc2c(cc1Nc1ncc3cnn(C4C=CCCC4)c3n1)CN(C)CC2 (stereo not shown) [Example 34, N-(1-(cyclohex-2-en-1-yl)-1H-pyrazolo[3,4-d]pyrimidin-6-yl)-6-methoxy-2-methyl-1,2,3,4-tetrahydroisoquinolin-7-amine] | < 100
20 | COc1cc2c(cc1Nc1ncc3cnn(C[C@@H]4CCCN4C(C)=O)c3n1)CN(C[C@@H](C)O)CC2 [Example 195, 1-((S)-2-((6-((2-((R)-2-hydroxypropyl)-6-methoxy-1,2,3,4-tetrahydroisoquinolin-7-yl)amino)-1H-pyrazolo[3,4-d]pyrimidin-1-yl)methyl)pyrrolidin-1-yl)ethan-1-one] | < 100
21 | CN1CCc2ccc(Nc3ncc4cnn(CC5COC5)c4n3)cc2C1 [Example 14, 2-methyl-N-(1-(oxetan-3-ylmethyl)-1H-pyrazolo[3,4-d]pyrimidin-6-yl)-1,2,3,4-tetrahydroisoquinolin-7-amine] | < 100
22 | COc1cc2c(cc1Nc1ncc3cnn(C[C@@H]4[C@@H](C)CCN4C(C)=O)c3n1)CN(CCO)CC2 [Example 223, 1-((2S,3S)-2-((6-((2-(2-hydroxyethyl)-6-methoxy-1,2,3,4-tetrahydroisoquinolin-7-yl)amino)-1H-pyrazolo[3,4-d]pyrimidin-1-yl)methyl)-3-methylpyrrolidin-1-yl)ethan-1-one] | < 100
